# Results reported in patent US9957271B2, “Substituted bicyclic aza-heterocycles and analogues as sirtuin modulators” (GlaxoSmithKline, LLC, priority 2012, dated 2018).
# Where two headings read alike, the source gives them in different places.
# Molecular target: T1, SIRT1 (Homo sapiens, UniProt Q96EB6)
# T1 sequence (Q96EB6 1-747): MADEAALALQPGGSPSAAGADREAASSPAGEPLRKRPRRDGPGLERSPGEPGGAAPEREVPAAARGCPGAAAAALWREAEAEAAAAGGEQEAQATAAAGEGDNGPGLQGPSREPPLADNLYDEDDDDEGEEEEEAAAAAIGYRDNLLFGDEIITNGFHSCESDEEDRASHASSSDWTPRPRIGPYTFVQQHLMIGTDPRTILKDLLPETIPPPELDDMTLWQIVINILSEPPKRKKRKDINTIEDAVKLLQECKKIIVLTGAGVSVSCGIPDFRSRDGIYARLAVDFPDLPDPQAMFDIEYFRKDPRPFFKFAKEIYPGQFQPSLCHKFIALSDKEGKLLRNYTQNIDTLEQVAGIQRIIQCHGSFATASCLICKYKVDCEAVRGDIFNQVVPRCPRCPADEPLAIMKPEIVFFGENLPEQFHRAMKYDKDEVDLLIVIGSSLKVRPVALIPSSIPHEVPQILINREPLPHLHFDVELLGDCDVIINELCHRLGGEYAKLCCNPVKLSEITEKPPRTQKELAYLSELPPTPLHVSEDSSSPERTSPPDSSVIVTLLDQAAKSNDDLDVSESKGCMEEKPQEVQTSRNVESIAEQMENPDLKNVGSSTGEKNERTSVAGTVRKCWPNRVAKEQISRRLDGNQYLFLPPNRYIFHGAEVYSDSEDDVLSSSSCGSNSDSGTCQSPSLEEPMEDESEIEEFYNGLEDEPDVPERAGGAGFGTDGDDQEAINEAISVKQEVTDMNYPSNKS
# Assay: Trp mass spectrometry assay of SIRT1 activity
# Type: biochemical
# Settings: for Emax: read-out: Trp % Fold Act; for Trp EC1.5 (μM): concentration giving 150% activation of SIRT1
# Source text: Mass spectrometry based assays were used to identify modulators of SIRT1 activity. The TAMRA based assay utilized a peptide having 20 amino acid residues as follows: Ac-EE-K(biotin)-[…](Ac)NleSTEG-K(5TMR)-EE-NH2 (SEQ ID NO: 1), wherein K(Ac) is an acetylated lysine residue and Nle is a norleucine. The peptide was labeled with the fluorophore 5TMR (excitation 540 nm/emission 580 nm) at the C-terminus. The sequence of the peptide substrate was based on p53 with several modifications. In addition, the methionine residue naturally present in the sequence was replaced with the norleucine because the methionine may be susceptible to oxidation during synthesis and purification. The Trp based assay utilized a peptide having an amino acid residues as follows: Ac-R-H-K-K(Ac)-W-NH2 (SEQ ID NO: 2).
# The Trp mass spectrometry assay was conducted as follows. 0.5 μM peptide substrate and 120 μM βNAD^+ were incubated with 10 nM SIRT1 for 25 minutes at 25° C. in a reaction buffer (50 mM HEPES pH 7.5, […], 1 mM DTT, 0.05% BSA). The SIRT1 protein was obtained by cloning the SirT1 gene into a T7-promoter containing vector, which was then expressed in BL21(DE3) bacterial cells and purified as described in further detail below. Test compound was added at varying concentrations to this reaction mixture and the resulting reactions were monitored. After the 25 minute incubation with SIRT1, 10 μL of 10% formic acid was added to stop the reaction. The resulting reactions were sealed and frozen for later mass spec analysis. The relative SIRT1 activity was then determined by measuring the amount of O-acetyl-ADP-ribose (OAADPR) formed (or, alternatively, the amount of deacetylated Trp peptide generated) by the NAD-dependent sirtuin deacetylation reaction in the presence of varying concentrations of the test compound versus control reactions lacking the test compound. The degree to which the test agent activated deacetylation by SIRT1 was expressed as EC1.5 (i.e., the concentration of compound required to increase SIRT1 activity by 50% over the control lacking test compound), and Percent Maximum Activation (i.e., the maximum activity relative to control (100%) obtained for the test compound).
# A control for inhibition of sirtuin activity was conducted by adding 1 μL of 500 mM nicotinamide as a negative control at the start of the reaction (e.g., permits determination of maximum sirtuin inhibition). A control for activation of sirtuin activity was conducted using 10 nM of sirtuin protein, with 1 μL of DMSO in place of compound, to determine the amount of deacetylation of the substrate at a given time point within the linear range of the assay. This time point was the same as that used for test compounds and, within the linear range, the endpoint represents a change in velocity.
# For the above assay, SIRT1 protein was expressed and purified as follows. The SirT1 gene was cloned into a T7-promoter containing vector and transformed into BL21(DE3). The protein was expressed by induction with 1 mM IPTG as an N-terminal His-tag fusion protein at 18° C. overnight and harvested at 30,000×g. Cells were lysed with lysozyme in lysis buffer (50 mM Tris-HCl, 2 mM Tris[2-carboxyethyl]phosphine (TCEP), 10 μM ZnCl2, 200 mM NaCl) and further treated with sonication for […] for complete lysis. The protein was purified over a Ni-NTA column (Amersham) and fractions containing pure protein were pooled, concentrated and run over a sizing column (Sephadex S200 26/60 global). The peak containing soluble protein was collected and run on an Ion-exchange column (MonoQ). Gradient elution (200 mM-500 mM NaCl) yielded pure protein. This protein was concentrated and dialyzed against dialysis buffer (20 mM Tris-HCl, 2 mM TCEP) overnight. The protein was aliquoted and frozen at −80° C. until further use.
# [1] = Trp assay, percent maximum fold activation
# [2] = percent maximum fold activation of SIRT1, Trp peptide substrate
Emax [1] [%],Emax [2] [%],Trp EC1.5 (μM) (Trp assay),Structure (SMILES)
≥ 350,–,–,Cc1nc(NC(=O)c2cnc3ccc(N4CCCC4C(F)(F)F)nn23)sc1C (stereo not shown) [Compound 969]
–,≥ 350,–,O=C(Nc1nc2c(s1)CCCC2)c1cnc2ccc(N3CCCC3C(F)(F)F)nn12 (stereo not shown) [Compound 1096]
–,≥ 350,–,Cc1nc2ccc(N3CCC[C@H]3C(F)(F)F)nn2c1C(=O)Nc1cncc(F)c1 [Compound 1017]
–,≥ 350,–,O=C(Nc1cccnc1)c1cnc2ccc(N3CCC[C@@H]3C(F)(F)F)nn12 [Compound 1019]
≥ 350,–,A (EC1.5<1 μM),"O=C(Nc1cccnc1)c1cnn2ccc(N3CCCCC3C(F)(F)F)nc12 (stereo not shown) [Compound 945, N-(pyridin-3-yl)-5-(2-(trifluoromethyl)piperidin-1-yl)pyrazolo[1,5-a]pyrimidine-3-carboxamide]"
< 350,–,B (EC1.5 1-25 μM),CO[C@H]1CCN(c2ccc3ncc(C(=O)Nc4ccc(F)cn4)n3n2)C1 [Compound 935]
≥ 350,–,B (EC1.5 1-25 μM),Cc1nc2ccc(N3CC[C@H](F)C3)nn2c1C(=O)Nc1ncccn1 [Compound 852]
< 350,–,B (EC1.5 1-25 μM),O=C(Nc1cncc(F)c1)c1cnc2ccc(N3CC[C@H](F)C3)nn12 [Compound 890]
–,≥ 350,–,Cc1nn2ccc(N3CCC[C@@H]3C(F)(F)F)nc2c1C(=O)Nc1cc(-c2cnco2)ccn1 [Compound 1087]
–,≥ 350,–,C[C@H]1CCCN1c1ccc2ncc(C(=O)Nc3ccccn3)n2n1 [Compound 1053]
–,≥ 350,–,O=C(Nc1cccnn1)c1cnn2ccc(N3CCCCC3C(F)(F)F)nc12 (stereo not shown) [Compound 1021]
< 350,–,C (EC1.5>25 μM),Cc1nc2ccc(N3CC[C@H](N(C)C)C3)nn2c1C(=O)Nc1ccncc1F [Compound 870]
< 350,–,A (EC1.5<1 μM),CN(C)[C@H]1CCN(c2ccc3ncc(C(=O)Nc4ccc(F)cn4)n3n2)C1 [Compound 874]
–,≥ 350,–,O=C(Nc1cnccn1)c1cnn2ccc(N3CCC[C@@H]3C(F)(F)F)nc12 [Compound 1078]
–,≥ 350,–,O=C(Nc1cccnc1)c1cnn2ccc(N3CCC[C@@H]3C(F)(F)F)nc12 [Compound 1076]
≥ 350,–,A (EC1.5<1 μM),Cc1ccnc(NC(=O)c2c(C)nc3c(OC[C@H](O)CO)cc(-c4ccccc4C(F)(F)F)nn23)c1 [Compound 859]
< 350,–,B (EC1.5 1-25 μM),O=C(Nc1cnccn1)c1cnc2ccc(N3CCC(F)(F)C3)nn12 [Compound 905]
–,≥ 350,–,CC1CCCN1c1ccn2ncc(C(=O)Nc3ccccn3)c2n1 (stereo not shown) [Compound 1037]
≥ 350,–,A (EC1.5<1 μM),O=C(Nc1ccccn1)c1cnc2ccc(-c3cccc(OC[C@H](O)CO)c3)nn12 [Compound 847]
< 350,–,B (EC1.5 1-25 μM),O=C(Nc1ccccn1)c1cnc2ccc(N3CC(F)(F)C3)nn12 [Compound 912]
< 350,–,B (EC1.5 1-25 μM),O=C(Nc1cccnc1)c1cnc2ccc(N3CCC(F)(F)CC3)nn12 [Compound 928]
–,≥ 350,–,O=C(Nc1cncc(F)c1)c1cnn2ccc(N3CCC(C(F)(F)F)C3)nc12 (stereo not shown) [Compound 1013]
≥ 350,–,A (EC1.5<1 μM),CN(C)c1cccc(NC(=O)c2cnc3ccc(N4CC[C@H](F)C4)nn23)n1 [Compound 911]

Emax [1] [%],Emax [2] [%],Trp EC1.5 (μM) (Trp assay),Structure (SMILES)
< 350,–,C (EC1.5>25 μM),O=C(Nc1ccncc1F)c1cnc2ccc(N3CC(F)(F)C3)nn12 [Compound 915]
≥ 350,–,–,C[C@@H]1CN(c2ccc3ncc(C(=O)Nc4cccnc4)n3n2)C[C@H](C)O1 [Compound 995]
< 350,–,–,O=C(Nc1cccnc1)c1cnc2ccc(N3CC[C@H](O)C3)nn12 [Compound 982]
< 350,–,B (EC1.5 1-25 μM),O=C(Nc1ccc(F)cn1)c1cnc2ccc(N3CCC(F)(F)C3)nn12 [Compound 907]
–,< 350,–,C[C@H]1CCCN1c1ccc2ncc(C(=O)Nc3cncc(F)c3)n2n1 [Compound 1059]
< 350,–,C (EC1.5>25 μM),O=C(Nc1ccc(F)cn1)c1cnc2ccc(N3CCCC3)nn12 [Compound 897]
≥ 350,–,–,CC1(C)CCN(c2ccc3ncc(C(=O)Nc4cccnc4)n3n2)C1 [Compound 953]
< 350,–,–,CN1CCN(c2ccc3ncc(C(=O)Nc4ccccn4)n3n2)CC1 [Compound 948]
< 350,–,–,O=C(Nc1ccncn1)c1cnc2ccc(N3CCOCC3)nn12 [Compound 961]
< 350,–,A (EC1.5<1 μM),Cc1nc2ccc(N3CC[C@H](F)C3)nn2c1C(=O)Nc1ccncc1F [Compound 846]
–,≥ 350,–,CN1CCc2ncc(NC(=O)c3cnc4ccc(N5CCCC5C(F)(F)F)nn34)cc2C1 (stereo not shown) [Compound 1094]
–,≥ 350,–,O=C(Nc1cncc(F)c1)c1cnn2ccc(N3CCCC3C(F)(F)F)nc12 (stereo not shown) [Compound 1001]
≥ 350,–,A (EC1.5<1 μM),Cc1cccc(NC(=O)c2cnc3ccc(-c4cccc(OC[C@H](O)CO)c4)nn23)n1 [Compound 848]
–,< 350,–,C[C@H]1CCCN1c1ccc2ncc(C(=O)Nc3ccc(F)cn3)n2n1 [Compound 1052]
–,≥ 350,–,Cc1nn2ccc(N3CCC[C@H]3C(F)(F)F)nc2c1C(=O)Nc1ccccn1 [Compound 1035]
< 350,–,–,CC1(C)CCN(c2ccc3ncc(C(=O)Nc4ccc(F)cn4)n3n2)C1 [Compound 954]
–,≥ 350,–,Cc1nc2ccc(N3CCCC3C(F)(F)F)nn2c1C(=O)Nc1cccnn1 (stereo not shown) [Compound 1006]
–,≥ 350,–,O=C(Nc1cccnn1)c1cnn2ccc(N3CCC[C@H]3C(F)(F)F)nc12 [Compound 1030]
< 350,–,B (EC1.5 1-25 μM),CN(C)c1ccnc(NC(=O)c2cnc3ccc(-c4cccc(OC[C@H](O)CO)c4)nn23)c1 [Compound 878]
< 350,–,C (EC1.5>25 μM),Cc1cc(NC(=O)c2cnc3ccc(-c4cccc(OC[C@H](O)CO)c4)nn23)ccn1 [Compound 875]
< 350,–,C (EC1.5>25 μM),O=C(Nc1ccncc1F)c1cnc2ccc(N3CCC(F)(F)C3)nn12 [Compound 903]
< 350,–,–,CN1CCN(c2ccc3ncc(C(=O)Nc4ccncn4)n3n2)CC1 [Compound 971]
≥ 350,–,B (EC1.5 1-25 μM),O=C(Nc1cccnn1)c1cnc2ccc(N3CCC(F)(F)CC3)nn12 [Compound 930]
